Experimental data: the NIST ThermoML archive (doi:10.1016/j.tca.2014.04.012)
± gives the expanded uncertainty stated by the source.

Settings: Crystal; visual observation

Row | Normal melting temperature [°C] | SMILES
1 | 310.00 ± 2 | CCN1C(=O)N(CC)C2NC(=O)NC21 (configuration not stated)
2 | 260.00 ± 2 | CN1C(=O)N(C)C2NC(=O)NC21 (configuration not stated)
